Test results as given in PMC11788587, “Validating Low‐Dose Iohexol as a Marker for Glomerular Filtration Rate by In Vitro and In Vivo Studies” (Clinical and Translational Science, 2025).

Target: T1, hOATP1B3 (Homo sapiens, UniProt Q9NPD5)
T1 construct: expressed in transfected cells; host or cells: 293 cells (control: empty vector)
T1 sequence (Q9NPD5 1-702): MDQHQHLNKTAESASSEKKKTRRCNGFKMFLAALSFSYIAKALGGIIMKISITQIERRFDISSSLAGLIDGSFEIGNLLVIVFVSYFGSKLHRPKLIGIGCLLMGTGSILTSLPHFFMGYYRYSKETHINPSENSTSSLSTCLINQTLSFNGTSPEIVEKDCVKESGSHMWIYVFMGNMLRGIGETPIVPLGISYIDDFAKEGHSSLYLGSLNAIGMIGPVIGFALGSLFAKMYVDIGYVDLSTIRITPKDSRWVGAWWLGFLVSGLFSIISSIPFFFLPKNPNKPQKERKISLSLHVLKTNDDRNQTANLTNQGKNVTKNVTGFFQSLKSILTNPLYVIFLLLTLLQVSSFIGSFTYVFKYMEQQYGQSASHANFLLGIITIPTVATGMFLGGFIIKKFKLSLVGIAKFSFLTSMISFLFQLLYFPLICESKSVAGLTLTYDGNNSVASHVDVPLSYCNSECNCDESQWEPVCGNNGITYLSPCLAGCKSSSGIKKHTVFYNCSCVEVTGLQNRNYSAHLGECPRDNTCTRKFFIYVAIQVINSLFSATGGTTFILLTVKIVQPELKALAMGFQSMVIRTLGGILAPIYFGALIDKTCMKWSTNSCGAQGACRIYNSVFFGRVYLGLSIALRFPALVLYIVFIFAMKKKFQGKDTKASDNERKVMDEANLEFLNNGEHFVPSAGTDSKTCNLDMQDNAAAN
Assay: Inhibition of hOATP1B3-mediated 3H-BSP uptake, stably transfected 293 cells
Type: cell-based
Conditions: substrate 0.02 μM 3H-BSP, median (95% CI)
From the text: We characterized the inhibitory potential of iohexol on major drug transporters recommended by regulatory agencies, which were previously assessed in a clinical transporter phenotyping cocktail study. These transporters include hOAT1, hOAT3, hOCT1, hOCT2, hMATE1, hMATE2K, human organic anion transporter polypeptides (hOATP)1B1, hOATP1B3, and human multidrug resistance protein (hMDR)1. Additionally, we investigated whether iohexol is a substrate for any of the renal transporters among these, including hOAT1/3, hOCT1/2, and hMATE1/2K. Cell‐based uptake assays were used to assess the activities of hOAT1/3, hOCT1/2, hMATE1/2K, and hOATP1B1/1B3. Inside‐out membrane vesicle uptake assays were used to evaluate the activity of hMDR1.
To determine the maximal inhibitory potential of iohexol, intracellular accumulation of a standard substrate was measured with and without the clinically relevant highest concentrations of iohexol. Control inhibitors were tested in each experiment.
In all subsequent in vitro studies, control experiments were conducted to validate the results. […] Each condition, including cells or vesicles with the transporter and their respective controls, was analyzed in at least three replicates. […]
Uptake assays were carried out with stably transfected 293 cells expressing hOATP1B1 or hOATP1B3, as well as cells containing an empty vector, using the method described by Hsin CH, et al..^1 For the inhibition assays, cells were incubated with the radiolabeled standard substrates specific to each transporter: 0.01 μM ^3H-estrone sulfate for hOATP1B1, and 0.02 μM ^3H-bromosulphophthalein (BSP) for hOATP1B3. […] The accumulation of radio-labelled probe substrates (^3H) in the cell lysate is determined using a Tri-Carb 2810 liquid scintillation counter (PerkinElmer, Waltham, MA, USA) as described previously.^1 Cellular protein amount was determined in parallel from 6 paired wells per cell line and experimental day, using the Bradford method.^2 The 1X lysis buffer (5X lysis buffer from Promega, diluted 1+4 [v/v] in ddH2O) was used as the lysis buffer. […]

- Inhibitory effect (% reduction of specific activity) (20 mM iohexol): no notable inhibitory effects
- inhibition at 7 min, 2 mM (human, stably transfected 293 cells expressing hOATP1B3, probe 3H-bromosulphophthalein (BSP), 2 mM iohexol, read-out: Inhibitory effect (% reduction of specific activity)): -2.5%
- inhibition at 7 min, 20 mM (human, stably transfected 293 cells expressing hOATP1B3, probe 3H-bromosulphophthalein (BSP), 20 mM iohexol, read-out: Inhibitory effect (% reduction of specific activity)): -21%
SMILES: CC(=O)N(CC(O)CO)c1c(I)c(C(=O)NCC(O)CO)c(I)c(C(=O)NCC(O)CO)c1I (stereo not drawn) [iohexol]
